According to patent US8877928B2 (Shandong University, priority 2010, dated 2014):

Experiments:
[1] = cited from earlier work
[2] = loss of midline facial features, uniocular, lack of anatomical features from forebrain; cited from earlier work
[3] = Study of stability in plasma (disappearance of the conjugate by HPLC); conditions: 37° C.
Experimental: The mixture was quenched with a CH3CN/MeOH mixture (800 μL) in a ratio of 1:1, swirled for 1 minute, and then filtered through a 0.2 μm filter membrane. 30 μl of the resulting filtrate was analyzed by HPLC, to measure the disappearance of the conjugate.

COLO 205 = test: cells; conditions: Homo sapiens, COLO 205, read-out: IC50 COLO205
Experimental: (§1) All cell lines were obtained from the American Type Culture Collection, and grown in the following media: COLO 205 and OVCAR-3 (RPMI 1640, containing 4.5 g/L glucose, 10 mM HEPES, 1 mM sodium pyruvate, 10% FBS); HT-29 (McCoy's 5a, containing 1.5 mM L-glutamine, 10% FBS); A549 (Ham's F12K, containing 10% FBS). All cell lines were maintained in an incubator at 37° C. containing 5% CO2. […] Briefly, the day before the start of the experiment the cells were incubated in a 96-well plate in a quantity of 10,000-20,000/well. […] At the end of the incubation period, an MTS dye was added, and then the colored product formazane as formed was measured by a Spectramax 340PC reader (Molecular Devices, CA) at 490 nm.
(§2) A interval was less than 0.100 μM; B interval was greater than 0.100 μM but less than 0.500 μM; C interval was greater than 0.500 μM but less than 2.000 μM; D interval was greater than 2.000 μM.

HT-29 = test: cells; conditions: Homo sapiens, HT-29, read-out: IC50 HT 29
Experimental: as §1, §2

A549 = test: cells; conditions: Homo sapiens, A549, read-out: IC50 A549
Experimental: as §1, §2

OVCAR-3 = test: cells; conditions: Homo sapiens, OVCAR-3, read-out: IC50 OVCAR3
Experimental: as §1, §2

## CC1=C2C[C@H]3[C@@H](CC=C4C[C@@H](O)CC[C@@]43C)[C@@H]2CC[C@]12O[C@@H]1C[C@H](C)CN[C@H]1[C@H]2C [cyclopamine]
[1]
  chemical stability at low pH: chemically instable
[2]
  teratogenicity: teratogenic
[3]; 2 h
  disappearance % 2 h: 32%
[3]; 4 h
  disappearance % 4 h: 68%
[3]; 24 h
  disappearance % 24 h: 83%
COLO 205
  IC50: 100 to 500 nM
HT-29
  IC50: 100 to 500 nM
A549
  IC50: > 2000 nM
OVCAR-3
  IC50: 100 to 500 nM
